Reference: patent US6653339B2, “Method of treating irritable bowel syndrome” (Pfizer Inc., priority 2001, dated 2003)

System: irritable bowel syndrome
Test: Clinical Study 1, controlled (slow) release darifenacin once daily vs placebo in irritable bowel syndrome
Type: in vivo, human
Settings: for Constipation % of patients reporting AEs corrected for placebo / Dry Mouth % of patients reporting AEs corrected for placebo / Global Rating % Reduction from baseline corrected for placebo / Loose Stool % Reduction from baseline corrected for placebo / Pain Score % Reduction from baseline corrected for placebo / Total AE % of patients reporting AEs corrected for placebo / Urgency % Reduction from baseline corrected for placebo / Vision % of patients reporting AEs corrected for placebo / Constipation % of patients reporting AEs / Dry Mouth % of patients reporting AEs / Global Rating % Reduction from baseline / Loose Stool % Reduction from baseline / Pain Score % Reduction from baseline / Total AE % of patients reporting AEs / Urgency % Reduction from baseline / Vision % of patients reporting AEs: Clinical Study 1, 12 weeks; for Constipation % of patients reporting AEs / Dry Mouth % of patients reporting AEs / Global Rating % Reduction from baseline / Loose Stool % Reduction from baseline / Pain Score % Reduction from baseline / Total AE % of patients reporting AEs / Urgency % Reduction from baseline / Vision % of patients reporting AEs: uncorrected
Source text: The invention may be illustrated by the following clinical studies wherein the treatment of irritable bowel syndrome using darifenacin administered as a once-daily controlled (slow) release formulation in accordance with the prior art is compared with treatment using darifenacin administered as a thrice daily immediate release formulation in accordance with the present invention. Specifically, Clinical Studies 1 and 2 used controlled (slow) release formulations of darifenacin administered once daily (od) and Clinical Study 3 used an immediate release formulation of darifenacin administered three times daily (tid).
During each clinical study, four efficacy measures of irritable bowel syndrome severity were measured, viz. ‘Pain Score’ (Average daily pain score, a composite of severity and number of days of pain), ‘Loose Stool’ (Number of days on which loose or watery stool occurred), ‘Urgency’ (Number of days on which urgency occured) and so-called ‘Global Rating’ (Patient rating of their condition taking into account all symptoms, 0=no problems). Adverse events (AE) such as constipation, dry mouth and visual abnormalities were also recorded.
Clinical Study 1 was a multi-centre, double-blind, randomised, placebo-controlled parallel group study in which three dose strengths of darifenacin of 3.75 mg, 7.5 mg and 15 mg dosed od were compared with placebo. Treatment lasted 12 weeks following a 2-week run-in period.
The controlled (slow) release dosage forms of darifenacin used in Clinical Studies 1 and 2 were 3.75 mg, 7.5 mg, 15.0 mg and 30.0 mg tablets having the following compositions: […]

[1] = controlled release tablet 3.75 mg od
[2] = controlled release tablet 7.5 mg od
[3] = controlled release tablet 15 mg od
[4] = both controlled release od studies (Clinical Studies 1 and 2)

With NC(=O)C(c1ccccc1)(c1ccccc1)[C@@H]1CCN(CCc2ccc3c(c2)CCO3)C1 [darifenacin] the “Constipation % of patients reporting AEs corrected for placebo” value (“Constipation % … for placebo” below) [1] was 1.4%, the “Dry Mouth % of patients reporting AEs corrected for placebo” value (“Dry Mouth % … for placebo” below) [1] was 2.5% and the “Global Rating % Reduction from baseline corrected for placebo” value (“Global Rating % Reduction … for placebo” for short) [1] was −2%. For the same molecule, the “Loose Stool % Reduction from baseline corrected for placebo” value (“Loose Stool % Reduction … for placebo” below) [1] was 4%, the “Pain Score % Reduction from baseline corrected for placebo” value (“Pain Score % Reduction … for placebo” for short) [1] was −3% and the “Total AE % of patients reporting AEs corrected for placebo” value (“Total AE % … for placebo” for short) [1] was 2%. The “Urgency % Reduction from baseline corrected for placebo” value (“Urgency % Reduction … for placebo” for short) [1] was 18%, the “Vision % of patients reporting AEs corrected for placebo” value (from here on “Vision % … for placebo”) [1] was 5.4% and the “Constipation % of patients reporting AEs” value [1] was 7.2%. The “Dry Mouth % of patients reporting AEs” value [1] was 10.2%, the “Global Rating % Reduction from baseline” value [1] was 27% and the “Loose Stool % Reduction from baseline” value [1] was 37%. For the same molecule, the “Pain Score % Reduction from baseline” value [1] was 35%, the “Total AE % of patients reporting AEs” value [1] was 27% and the “Urgency % Reduction from baseline” value [1] was 41%. For the same molecule, the “Vision % of patients reporting AEs” value [1] was 5.4%, the “Constipation % … for placebo” value [2] was 4.7% and the “Dry Mouth % … for placebo” value [2] was 6.5%. The “Global Rating % Reduction … for placebo” value [2] was 0%, the “Loose Stool % Reduction … for placebo” value [2] was 4% and the “Pain Score % Reduction … for placebo” value [2] was 5%. For the same molecule, the “Total AE % … for placebo” value [2] was 3%, the “Urgency % Reduction … for placebo” value [2] was 17% and the “Vision % … for placebo” value [2] was 4.3%. For the same molecule, the “Constipation % of patients reporting AEs” value [2] was 10.5%, the “Dry Mouth % of patients reporting AEs” value [2] was 14.2% and the “Global Rating % Reduction from baseline” value [2] was 29%. For the same molecule, the “Loose Stool % Reduction from baseline” value [2] was 37%, the “Pain Score % Reduction from baseline” value [2] was 43% and the “Total AE % of patients reporting AEs” value [2] was 28%. The “Urgency % Reduction from baseline” value [2] was 40%, the “Vision % of patients reporting AEs” value [2] was 4.3% and the “Constipation % … for placebo” value [3] was 9.4%. The “Dry Mouth % … for placebo” value [3] was 20.8%, the “Global Rating % Reduction … for placebo” value [3] was 2% and the “Loose Stool % Reduction … for placebo” value [3] was 14%. For the same molecule, the “Pain Score % Reduction … for placebo” value [3] was 1%, the “Total AE % … for placebo” value [3] was 15% and the “Urgency % Reduction … for placebo” value [3] was 27%. The “Vision % … for placebo” value [3] was 3.3%, the “Constipation % of patients reporting AEs” value [3] was 15.2% and the “Dry Mouth % of patients reporting AEs” value [3] was 28.5%. The “Global Rating % Reduction from baseline” value [3] was 31%, the “Loose Stool % Reduction from baseline” value [3] was 47% and the “Pain Score % Reduction from baseline” value [3] was 39%. The “Total AE % of patients reporting AEs” value [3] was 40%, the “Urgency % Reduction from baseline” value [3] was 50% and the “Vision % of patients reporting AEs” value [3] was 3.3%. The “key measures of Pain Score and Global Rating” value [4] was “no effects were seen”, the “number of adverse effects” value [4] was “marked increase with dose” and the “efficacy measures of Loose Stool and Urgency” value (both controlled release od studies (Clinical Studies 1 and 2), higher doses) was “improvements”.
